The subject of this assay is Rhizopus microsporus. The experiment in a line: Sequential GC-MS analysis of breath samples from a patient with proven Rhizopus microsporus infection during antifungal therapy. Particulars: one patient with proven Rhizopus microsporus infection; from day 0 (start of therapy) over the 28-day treatment course. Type of assay: in vivo, human.

As to `C[C@@H](c1nc(-c2ccc(C#N)cc2)cs1)[C@](O)(Cn1cncn1)c1cc(F)ccc1F` [isavuconazole], the “breath levels of three sesquiterpene metabolites (1H-Indene, 2,3,3a,4-tetrahydro-3,3a,6-trimethyl-1-(1-methylethyl)-; cedrene; cedranoxide, 8,14-)” value was “gradual attenuation and disappearance”.

The record behind these values is patent US10960002B2, “Volatile metabolite profiles for the diagnosis and treatment of Mucorales fungi” (The Brigham and Women's Hospital, Inc., priority 2016, dated 2021).
